# Experimental data: patent US20040019118A1, “NMDA receptor antagonists and their use in inhibiting abnormal hyperphosphorylation of microtubule associated protein tau” (priority 2002, published 2004)
# “Also recorded” adds a separate entry of the source. Where two headings read alike, the source gives them in different places.
# How the values were obtained:
# MAPK = MAPK activity in extracts of treated hippocampal slice cultures; assay type: cell-based, rat; details: after 0.3 mM glutamate; 10 μM Memantine or 15 μM MK801
# Procedure: (§1) The rats were anesthetized with ketamine (100 mg/kg body weight) and decapitated and the hippocampi were dissected out and sliced into 400 um coronal sections by a McIllwain tissue chopper. Select slices with uninterrupted bright transparent neuronal layers were plated, 1-3 slices/filter, onto Millicell CM filters (Millipore, Bedford, Mass.). […] After 7 DIV, the cultures were maintained in physiological potassium containing 5% horse serum medium at 35° C. for at least 20 days before any treatment was applied. When the slices were treated, the reagents were applied into the culture medium. At different time points, the slices collected with a brush were washed twice in homogenizing buffer (50 mM HEPES, pH 7.0, 10 mM β-merceptoethanol [BME], 1 mM EDTA, 1 mM EGTA, 0.1 mM phenylmethyl sulfonyl fluoride [PMSF], 2.0 mM benzamidine and 2.0 μg/ml each of aprotinin, leupeptin and pepstatin) and homogenized at 4° C. using a Teflon-glass homogenizer. The homogenate was then divided into two parts, one was centrifuged at 16000×g for 15 min and the supernatant was used to assay activities of PP-2A and PP-1. The rest of the homogenate was diluted 1:1 with a phosphatase inhibitor cocktail (20 mM β-glycerophosphate, 2 mM Na3VO4 and 100 mM NaF, pH 7.0) and either used for Western blots or centrifuged at 16000×g for 15 min and the resulting supernatant used to determine the kinase activities.
# Immobilized protein G (Pierce, Rockford, Ill.), 20 μl, was mixed in 50 mM Tris, pH 7.4, 150 mM NACl, 10 mM NaF, 1.0 mM Na3VO4, 2.0 mM EGTA, 1 mM PMSF, 5 μg/ml leupeptin, 5 μg/ml aprotinin, 2 μg/ml pepstatin, 25 μg/ml phosphoramidon. After incubation at 4° C. overnight, the mixture was centrifuged and the beads were washed three times. The beads were then resuspended in 50 mM Tris, pH 7.4, containing 10 mM MgCl2. MAPK substrate peptide (UBI, Lake Placid, N.Y.) was employed for the MAPK assay. […]
# MAP2 = assay: Immunohistochemical staining of MAP2 in cultured hippocampal slices; assay type: cell-based, rat; details: 100 nM OA 24 h, then 10 μM Memantine 24 h
# Procedure: Organotypic cultures of rat hippocampal slices were prepared from 20-30 day old Wistar rats and cultured with the interface method as described previously (Stoppini, et al. 1991; Bahr, et al. 1995; Zhongrin, et al. 2000). The rats were anesthetized with ketamine (100 mg/kg body weight) and decapitated and the hippocampi were dissected out and sliced into 400 um coronal sections by a McIllwain tissue chopper. Select slices with uninterrupted bright transparent neuronal layers were plated, 1-3 slices/filter, onto Millicell CM filters (Millipore, Bedford, Mass.). For the first 2 days in vitro (DIV) cultures were maintained in 25% horse serum, 50% Basal Media-Eagle (BEM), 25% Eagle's Balanced Salt Solution (EBSS), 25 mM HEPES, 1 mM glutamine, 28 mM glucose, pH 7.2, at 32° C. in a 5% CO2 humidified atmosphere. The slice cultures were then switched to 25% horse serum, 50% BEM and EBSS modified so that the potassium concentration was 2.66 mM, for another 5 DIV. […]
# After different treatments some of the hippocampal slices were fixed in periodate/lysine/paraformaldehyde solution (Mclean, et al. 1974) at 33° C. for 5 h and then kept in 1% Triton-x-100 in PBS (pH 7.4) for 72 h at room temperature to improve the penetration of the antibodies. […] Peroxidase was detected using 0.05% diaminobenzidine (DAB) and H2O2 (0.01%) for 10 min.
# PP-1 [1] = assay: PP-1 activity in extracts of treated hippocampal slice cultures; assay type: cell-based, rat; details: OA up to 1 μM, up to 48 h
# Procedure: as §1
# PP-2A [2] = target: T1, PP-2A (Homo sapiens, UniProt P67775); details: read-out: in vitro IC50; cited from earlier work
# PP-1 [3] = details: 10 nM OA, 24 h; cited from earlier work
# PP-2A [4] = target: T2, PP-2A (Rattus norvegicus, UniProt P63331); details: up to 5 μM OA, 3 h; cited from earlier work
# T2 construct: the supernatant was used to assay activities of PP-2A and PP-1; from tissue; host or cells: organotypic culture of adult rat hippocampal slices; 16,000xg extract
# PP-1 [5] = details: up to 5 μM OA, 3 h; cited from earlier work
# PP-2A [6] = target: T1, PP-2A; design: treatment of the SY5Y human neuroblastoma in culture with 10 nM OA for 24 h; host or cells: SY5Y human neuroblastoma cells (endogenous); details: 10 nM OA, 24 h; cited from earlier work
# T1 sequence (P67775 whole entry): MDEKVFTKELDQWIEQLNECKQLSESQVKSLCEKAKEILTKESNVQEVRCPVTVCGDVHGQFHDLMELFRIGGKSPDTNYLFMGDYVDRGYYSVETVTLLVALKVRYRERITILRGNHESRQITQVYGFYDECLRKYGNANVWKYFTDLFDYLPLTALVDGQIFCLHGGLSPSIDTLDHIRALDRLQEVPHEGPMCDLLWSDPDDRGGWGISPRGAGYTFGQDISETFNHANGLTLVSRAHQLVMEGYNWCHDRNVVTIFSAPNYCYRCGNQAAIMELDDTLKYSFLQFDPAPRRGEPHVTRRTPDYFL
# T2 sequence (P63331 whole entry): as the sequence (P67775 whole entry) above, with V5L counted along it
SMILES,effect on MAP kinase activity (MAPK),MAP2 immunostaining (MAP2),inhibition of PP-1 activity (PP-1 [1]),IC50 (PP-2A [2]) [nM],inhibition of PP-1 (PP-1 [3]) [%],maximal inhibition of PP-2A (PP-2A [4]) [%],inhibition of PP-1 (PP-1 [5]),inhibition of PP-2A (PP-2A [6])
"CC12CC3CC(C)(C1)CC(N)(C3)C2 [Memantine, 1-amino-3,5-dimethyl adamantane]",no effect,beaded accumulation of MAP2 in dendrites was reduced and overall staining was increased; also recorded: a decrease in the degeneration and restoration of the staining of the neuropil; also recorded: partially reversed,–,–,–,–,–,–
"C=C1[C@@H](O)[C@@H]2O[C@]3(CC[C@H](/C=C/[C@@H](C)[C@@H]4CC(C)=C[C@@]5(O[C@H](C[C@@](C)(O)C(=O)O)CC[C@H]5O)O4)O3)CC[C@H]2O[C@@H]1[C@@H](O)C[C@H](C)[C@H]1O[C@@]2(CCCCO2)CC[C@H]1C [OA, Okadaic Acid]",–,–,no significant changes; also recorded: no detectable inhibition,~1,~65,~70,no detectable inhibition,complete inhibition
